Assay results reported in the NIST ThermoML archive (doi:10.1016/j.jct.2011.07.021).

Experiments:
[1] = 101.33 kPa, Liquid, Vibrating tube method
[2] = relative permittivity at zero frequency (dimensionless); settings: 101.33 kPa, Liquid, Parallel plate capacitor
[3] = refractive index (Na D-line) (dimensionless); settings: 101.33 kPa, Liquid, Standard Abbe refractometry
[4] = relative permittivity at zero frequency (dimensionless); xn = mol fraction of the nth substance listed; settings: 101 kPa, Liquid, Parallel plate capacitor
[5] = refractive index (Na D-line) (dimensionless); xn = mol fraction of the nth substance listed; settings: 101 kPa, Liquid, Standard Abbe refractometry

CCCCC(CC)CO (centres undefined) [2-ethyl-1-hexanol]
Settings | mass density, [1] [kg/m3] | refractive index, [3] | relative permittivity at zero frequency, [2]
298.2 K | 830.62 | 1.4293 | 7.353
308.2 K | 823.1 | 1.4252 | 6.361
318.2 K | 814.91 | 1.4213 | 5.522

CCC(O)CO (centres undefined) [1,2-butanediol] + CCCCC(CC)CO
x1 = 1
Settings | refractive index, 298.2 K | refractive index, 308.2 K | refractive index, 318.2 K | relative permittivity at zero frequency, 298.2 K | relative permittivity at zero frequency, 308.2 K | relative permittivity at zero frequency, 318.2 K
[4] | – | – | – | 22.143 | 20.365 | 18.661
[5] | 1.4372 | 1.4312 | 1.4281 | – | – | –

C1COCCO1 [1,4-dioxane] + CCC(O)CO
x2 = 0
Settings | refractive index, 298.2 K | refractive index, 308.2 K | refractive index, 318.2 K | relative permittivity at zero frequency, 298.2 K | relative permittivity at zero frequency, 308.2 K | relative permittivity at zero frequency, 318.2 K
[4] | – | – | – | 2.228 | 2.209 | 2.187
[5] | 1.4201 | 1.4142 | 1.4084 | – | – | –

CCC(O)CO (centres undefined) [1,2-butanediol]
Settings | mass density, [1] [kg/m3] | refractive index, [3] | relative permittivity at zero frequency, [2]
298.2 K | 998.67 | 1.4372 | 22.143
308.2 K | 991.15 | 1.433 | 20.365
318.2 K | 983.55 | 1.4288 | 18.661

C1COCCO1 [1,4-dioxane]
Settings | mass density, [1] [kg/m3] | refractive index, [3] | relative permittivity at zero frequency, [2]
298.2 K | 1027.9 | 1.4201 | 2.228
308.2 K | 1016.11 | 1.4142 | 2.21
318.2 K | 1005 | 1.4084 | 2.187
